Measured values from patent US4288595A, “7-(Substituted)-7H-pyrrolo[3,2-f]quinazoline-1,3-diamines” (priority 1980, dated 1981).
In brackets after ≈: the same amount, converted by molar mass. Where two headings read alike, the source gives them in different places.

How the values were obtained:
E. coli 9637 = experiment: In vitro antibacterial activity, MIC by agar dilution; assay type: cell-based; conditions: read-out: MIC, E. coli 9637
Protocol: (§1) A stock solution or suspension of the test compound at a concentration of 2500 μg/ml. is prepared utilizing a suitable solvent or medium such as aqueous sodium hydroxide, aqueous lactic acid, methyl cellosolve, dimethylsulfoxide, dimethylacetamide, ethylene glycol, dimethylformamide, formamide, propylene glycol, acetone or methanol. Two-fold dilutions are made by adding appropriate amounts of sterile water to the solution or suspension of the test substance. One ml. quantities of each dilution are incorporated into Wellcotest Sensitivity Test Agar fortified with 5% hemolyzed horse blood (9 ml. vol.) in sterile Petri dishes to give plates containing varying concentrations of the test compound. The hardened surfaces of each plate are incubated with the test organism, and the plates are incubated for 18 hours at 35° C.

K. pneumoniae 10031 = experiment: as above; assay type: cell-based; conditions: read-out: MIC, K. pneumoniae 10031
Protocol: as §1

N. catarrhalis 8193 = experiment: as above; assay type: cell-based; conditions: Wellcotest Sensitivity Test Agar, 5% hemolyzed horse blood, 18 hours at 35° C.
Protocol: as §1

S. paratyphi 11737 = experiment: as above; assay type: cell-based; conditions: Salmonella enterica, read-out: MIC, S. paratyphi 11737
Protocol: as §1

P. vulgaris 6896 = experiment: as above; assay type: cell-based; conditions: Proteus vulgaris, Wellcotest Sensitivity Test Agar, 5% hemolyzed horse blood, 18 hours at 35° C.
Protocol: as §1

S. aureus 53-180 = experiment: as above; assay type: cell-based; conditions: Staphylococcus aureus, 53180; Wellcotest Sensitivity Test Agar, 5% hemolyzed horse blood, 18 hours at 35° C.
Protocol: as §1

S. aureus Smith = experiment: as above; assay type: cell-based; conditions: Staphylococcus aureus; Wellcotest Sensitivity Test Agar, 5% hemolyzed horse blood, 18 hours at 35° C.
Protocol: as §1

[1] = Blood schizonticidal antimalarial test in mice infected with Plasmodium berghei; conditions: mouse, in vivo, sc
Protocol: (§2) Test animals weigh from 18 to 22 grams but weight variations in any given experimental or control group are confined to 2-3 grams. All animals in any given test are approximately of the same age. Animals on test are housed in metal-topped plastic cages, given a standard laboratory diet and water ad libitum.
(§3) Test animals receive an intraperitoneal injection of 0.5 ml. of 1:100 dilution of heparinized heart's blood with a minimum of 90% parasitized cells (4×10^7 cells), drawn from donor mice infected one week earlier with Plasmodium berghei. The donor strain is maintained by weekly passages in separate groups of mice inoculated with a 0.5 ml. of 1:500 dilution of heparinized heart's blood.
(§4) Test compounds are administered after dissolution or suspension in peanut oil. A single dose is given subcutaneously 72 hours after the mice are infected with Plasmodium berghei. […] Since treatment is withheld for three days to permit the infection to become well established and death occurs in untreated controls within 6-8 days, it is felt that this system presents a candidate compound with the maximum challenge. In order to check factors such as changes in the infectivity of Plasmodium berghei or in the susceptibility of the host or to detect technical errors, a group of infected animals treated with pyrimethamine at dose levels producing definite increases in survival time is included in a positive control in every experiment.
(§5) In each experiment test compounds are administered in graded dosages. […] Deaths prior to the sixth day, when untreated controls begin to die, are regarded as nonparasitic and become the basis for toxicity evaluations. Treated animals are kept under observation for 60 days. Survivors at the end of this period of time are considered as cured. In calculating mean survival time, toxic deaths and 60-day survivors are not included.

[2] = tested on: Plasmodium berghei KBG 173; experiment: as above; conditions: for ED100 / minimal effective dose: Plasmodium berghei, in Mus musculus, sc; for ED100: read-out: Lowest Dose Curing All Mice; for minimal effective dose: read-out: Min. Curing Dose; for ΔMST (increase in mean survival time of treated animals to untreated controls): s.c.
Protocol: as §2, §3, §4, §5

[3] = Escherichia coli, 9637, Wellcotest Sensitivity Test Agar, 5% hemolyzed horse blood, 18 hours at 35° C.
[4] = Klebsiella pneumoniae, 10031, Wellcotest Sensitivity Test Agar, 5% hemolyzed horse blood, 18 hours at 35° C.
[5] = Wellcotest Sensitivity Test Agar, 5% hemolyzed horse blood, 18 hours at 35° C.

SMILES | MIC (E. coli 9637; [3]) [µg/mL] | MIC (K. pneumoniae 10031; [4]) [µg/mL] | MIC (N. catarrhalis 8193) [µg/mL] | MIC (S. paratyphi 11737; [5]) [µg/mL] | MIC (P. vulgaris 6896) [µg/mL] | MIC (S. aureus 53-180) [µg/mL] | MIC (S. aureus Smith) [µg/mL] | MTD at 1440 h [1] [mg/kg] | ED100 ([2]; 1440 h) [mg/kg] | minimal effective dose ([2]; 1440 h) [mg/kg] | ΔMST (increase in mean survival time of treated animals to untreated controls) ([2]; dose 10 mg. per kg.) | ED100 ([2]; 336 h) [mg/kg] | minimal effective dose ([2]; 336 h) [mg/kg] | ΔMST (increase in mean survival time of treated animals to untreated controls) ([2]; dose 5 mg. per kg.) | ΔMST (increase in mean survival time of treated animals to untreated controls) ([2]; dose 160 mg. per kg.) | ΔMST (increase in mean survival time of treated animals to untreated controls) ([2]; dose 20 mg. per kg.) | MIC (S. paratyphi 11737; 18 h) [µg/mL] | MIC (E. coli 9637; Escherichia coli, 9637, 18 h) [µg/mL] | MIC (K. pneumoniae 10031; Klebsiella pneumoniae, 10031, 18 h) [µg/mL]
Cc1ccc(S(=O)(=O)n2ccc3c4c(N)nc(N)nc4ccc32)cc1 [Example 5] | > 250 | 15.6 (≈ 44.1 µM) | 1.95 (≈ 5.52 µM) | > 250 | > 250 | 62.5 (≈ 177 µM) | 125 (≈ 354 µM) | 640 | 80 | 20 | 5.8 | – | – | – | – | – | – | – | –
CC(C)(C)c1ccc(S(=O)(=O)n2ccc3c4c(N)nc(N)nc4ccc32)cc1 [Example 12] | 250 (≈ 632 µM) | 1.95 (≈ 4.93 µM) | – | > 250 | > 250 | 3.9 (≈ 9.86 µM) | 7.81 (≈ 19.7 µM) | 640 | 40 | 20 | 6.5 | – | – | – | – | – | – | – | –
Nc1nc(N)c2c(ccc3c2ccn3S(=O)(=O)c2ccc(Cl)cc2)n1 [Example 8] | > 250 | 7.81 (≈ 20.9 µM) | 0.244 (≈ 0.653 µM) | > 250 | > 250 | 15.6 (≈ 41.7 µM) | 62.5 (≈ 167 µM) | 160 | – | – | – | 40 | 40 | – | – | – | – | – | –
COc1ccc(S(=O)(=O)n2ccc3c4c(N)nc(N)nc4ccc32)cc1 [Example 6] | > 250 | 3.9 (≈ 10.6 µM) | 0.122 (≈ 0.33 µM) | > 250 | > 250 | 7.81 (≈ 21.1 µM) | 15.6 (≈ 42.2 µM) | 640 | 160 | 40 | – | – | – | – | – | – | – | – | –
Nc1nc(N)c2c(ccc3c2ccn3S(=O)(=O)c2cccc(C(F)(F)F)c2)n1 [Example 9] | > 250 | 3.9 (≈ 9.57 µM) | – | > 250 | > 250 | 0.976 (≈ 2.4 µM) | 3.9 (≈ 9.57 µM) | 160 | 40 | 10 | – | – | – | 6.6 | – | – | – | – | –
Nc1nc(N)c2c(ccc3c2ccn3S(=O)(=O)c2ccc([N+](=O)[O-])cc2)n1 [Example 3] | 7.81 (≈ 20.3 µM) | 3.9 (≈ 10.1 µM) | 0.12 (≈ 0.312 µM) | > 250 | > 250 | 3.9 (≈ 10.1 µM) | 7.81 (≈ 20.3 µM) | – | – | 640 | – | – | – | – | 8.4 | – | – | – | –
Nc1nc(N)c2c(ccc3c2ccn3S(=O)(=O)c2ccccc2)n1 [Example 10] | 3.9 (≈ 11.5 µM) | 0.488 (≈ 1.44 µM) | – | 15.6 (≈ 46 µM) | 125 (≈ 368 µM) | 0.976 (≈ 2.88 µM) | 1.95 (≈ 5.75 µM) | – | – | 40 | – | – | – | – | – | 7.2 | – | – | –
Nc1nc(N)c2c(ccc3c2ccn3S(=O)(=O)c2ccc(Cl)c(Cl)c2)n1 [Example 7] | > 250 | 3.13 (≈ 7.67 µM) | 0.122 (≈ 0.299 µM) | – | > 250 | 3.9 (≈ 9.55 µM) | 31.3 (≈ 76.7 µM) | 640 | – | – | – | 10 | 1.25 | – | – | – | > 250 | – | –
Nc1nc(N)c2c(ccc3c2ccn3S(=O)(=O)c2ccc3ccccc3c2)n1 [Example 4] | > 250 | > 250 | 15.6 (≈ 40.1 µM) | > 250 | > 250 | 250 (≈ 642 µM) | 250 (≈ 642 µM) | – | – | 20 | 11.4 | – | – | – | – | – | – | – | –
Cc1ccc(C)c(S(=O)(=O)n2ccc3c4c(N)nc(N)nc4ccc32)c1 [Example 2, 7-[(2,5-Dimethylphenyl)Sulfonyl]-7H-Pyrrolo-[3,2-f]Quinazoline-1,3-Diamine] | – | – | – | 31.3 (≈ 85.2 µM) | 62.5 (≈ 170 µM) | 0.976 (≈ 2.66 µM) | 7.81 (≈ 21.3 µM) | 160 | 40 | 20 | – | – | – | 6.6 | – | – | – | 31.3 (≈ 85.2 µM) | 31.3 (≈ 85.2 µM)
CC(=O)Nc1ccc(S(=O)(=O)n2ccc3c4c(N)nc(N)nc4ccc32)cc1 [Example 11] | > 250 | 7.81 (≈ 19.7 µM) | – | > 250 | > 250 | 31.3 (≈ 79 µM) | 31.3 (≈ 79 µM) | 320 | 20 | 10 | – | – | – | 9.3 | – | – | – | – | –
